Reference: patent US20260015358A1, “BICYCLIC DERIVATIVES, COMPOSITIONS AND USES THEREOF” (Danatlas Pharmaceuticals Co., Ltd., priority 2023, published 2026)

Columns and labels:
[1] = molecular target: T1, WRN [UniPro: Q14191 (WRN_HUMAN), N500-C946] (Homo sapiens (Human), UniProt Q14191); assay: WRN ATPase assay (ADP-Glo); format: biochemical; conditions: WRN enzymatic activity assay
[2] = molecular target: T1, WRN [UniPro: Q14191 (WRN_HUMAN), N500-C946]; assay: WRN unwinding assay (FORKF DNA, fluorescence); format: biochemical; conditions: Table 14

T1 sequence (Q14191 500-946): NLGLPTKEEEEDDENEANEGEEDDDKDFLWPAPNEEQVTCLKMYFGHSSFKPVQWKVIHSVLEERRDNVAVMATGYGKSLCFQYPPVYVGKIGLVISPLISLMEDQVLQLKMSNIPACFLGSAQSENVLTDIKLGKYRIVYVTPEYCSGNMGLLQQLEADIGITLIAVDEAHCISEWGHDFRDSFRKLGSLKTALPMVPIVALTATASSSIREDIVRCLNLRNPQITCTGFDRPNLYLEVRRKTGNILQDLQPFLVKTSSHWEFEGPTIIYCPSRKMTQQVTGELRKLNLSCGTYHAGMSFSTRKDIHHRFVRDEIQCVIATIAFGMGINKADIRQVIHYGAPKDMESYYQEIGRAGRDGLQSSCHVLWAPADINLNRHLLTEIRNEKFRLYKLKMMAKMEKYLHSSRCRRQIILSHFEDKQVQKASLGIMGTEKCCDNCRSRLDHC

| SMILES | IC50 [1] [nM] | IC50 [2] [nM] |
| --- | --- | --- |
| CCc1c(N2CCN(C(=O)CNC(=O)c3cc(F)cc(NC)c3)CC2)c(=O)n2nc(N3CCOCC3)nc2n1CC(=O)Nc1ccc(C(F)(F)F)cc1F [Example 253, N-(2-(4-(5-Ethyl-4-(2-((2-fluoro-4-(trifluoromethyl)phenyl)amino)-2-oxoethyl)-2-morpholino-7-oxo-4,7-dihydro-[1,2,4]triazolo[1,5-a]pyrimidin-6-yl)piperazin-1-yl)-2-oxoethyl)-3-fluoro-5-(methylamino)benzamide] | < 100 | < 100 |
| CCc1c(N2CCN(C(=O)CNC(=O)c3ncco3)CC2)c(=O)n2nc(N3CCCOCC3)nc2n1CC(=O)Nc1ccc(C(F)(F)F)cc1F [Example 257, N-(2-(4-(5-Ethyl-4-(2-((2-fluoro-4-(trifluoromethyl)phenyl)amino)-2-oxoethyl)-2-(1,4-oxazepan-4-yl)-7-oxo-4,7-dihydro-[1,2,4]triazolo[1,5-a]pyrimidin-6-yl)piperazin-1-yl)-2-oxoethyl)oxazole-2-carboxamide] | 100 to 1000 | 100 to 1000 |
| CCc1c(N2CCN(C(=O)C(=O)Nc3nccs3)CC2)c(=O)n2nc(N3Cc4ccncc4C3)nc2n1CC(=O)Nc1ccc(C(F)(F)F)cc1Cl [Example 259, 2-(4-(4-(2-((2-Chloro-4-(trifluoromethyl)phenyl)amino)-2-oxoethyl)-2-(1,3-dihydro-2H-pyrrolo[3,4-c]pyridin-2-yl)-5-ethyl-7-oxo-4,7-dihydro-[1,2,4]triazolo[1,5-a]pyrimidin-6-yl)piperazin-1-yl)-2-oxo-N-(thiazol-2-yl)acetamide] | 100 to 1000 | < 100 |
| CCc1c(N2CCN(C(=O)C(=O)Nc3nccs3)CC2)c(=O)n2nc(N3CCCOCC3)nc2n1CC(=O)Nc1ccc(C(F)(F)F)cc1F [Example 262, 2-(4-(5-Ethyl-4-(2-((2-fluoro-4-(trifluoromethyl)phenyl)amino)-2-oxoethyl)-2-(1,4-oxazepan-4-yl)-7-oxo-4,7-dihydro-[1,2,4]triazolo[1,5-a]pyrimidin-6-yl)piperazin-1-yl)-2-oxo-N-(thiazol-2-yl)acetamide] | 100 to 1000 | < 100 |
| CCc1c(N2CCN(C(=O)C(=O)Nc3nccs3)CC2)c(=O)n2nc(N3CCN4C(=O)OC[C@H]4C3)nc2n1CC(=O)Nc1ccc(C(F)(F)F)cc1F [Example 264, (R)-2-(4-(5-Ethyl-4-(2-((2-fluoro-4-(trifluoromethyl)phenyl)amino)-2-oxoethyl)-7-oxo-2-(3-oxotetrahydro-3H-oxazolo[3,4-a]pyrazin-7 (1H)-yl)-4,7-dihydro-[1,2,4]triazolo[1,5-a]pyrimidin-6-yl)piperazin-1-yl)-2-oxo-N-(thiazol-2-yl)acetamide] | < 100 | < 100 |
| CCc1c(N2CCN(C(=O)CNC(=O)NC(=O)c3cc(F)ccc3F)CC2)c(=O)n2nc(C3=CCOCC3)nc2n1CC(=O)Nc1ccc(C(F)(F)F)cc1Cl [Example 265, N-((2-(4-(4-(2-((2-Chloro-4-(trifluoromethyl)phenyl)amino)-2-oxoethyl)-2-(3,6-dihydro-2H-pyran-4-yl)-5-ethyl-7-oxo-4,7-dihydro-[1,2,4]triazolo[1,5-a]pyrimidin-6-yl)piperazin-1-yl)-2-oxoethyl)carbamoyl)-2,5-difluorobenzamide] | < 100 | < 100 |
| CCc1c(N2CCN(C(=O)CNC(=O)Cc3ccccc3)CC2)c(=O)n2nc(C3=CCOCC3)nc2n1CC(=O)Nc1ccc(C(F)(F)F)cc1Cl [Example 267, N-(2-Chloro-4-(trifluoromethyl)phenyl)-2-(2-(3,6-dihydro-2H-pyran-4-yl)-5-ethyl-7-oxo-6-(4-((2-phenylacetyl)glycyl)piperazin-1-yl)-[1,2,4]triazolo[1,5-a]pyrimidin-4(7H)-yl)acetamide] | < 100 | < 100 |
| CCc1c(N2CCN(C(=O)CNC(=O)c3cncs3)CC2)c(=O)n2nc(C3=CCOCC3)nc2n1CC(=O)Nc1ccc(C(F)(F)F)cc1Cl [Example 268, N-(2-(4-(4-(2-((2-Chloro-4-(trifluoromethyl)phenyl)amino)-2-oxoethyl)-2-(3,6-dihydro-2H-pyran-4-yl)-5-ethyl-7-oxo-4,7-dihydro-[1,2,4]triazolo[1,5-a]pyrimidin-6-yl)piperazin-1-yl)-2-oxoethyl)thiazole-5-carboxamide] | < 100 | < 100 |
| CCc1c(N2CCN(C(=O)CNC(=O)c3ccccc3O)CC2)c(=O)n2nc(C3=CCOCC3)nc2n1CC(=O)Nc1ccc(C(F)(F)F)cc1Cl [Example 269, N-(2-(4-(4-(2-((2-Chloro-4-(trifluoromethyl)phenyl)amino)-2-oxoethyl)-2-(3,6-dihydro-2H-pyran-4-yl)-5-ethyl-7-oxo-4,7-dihydro-[1,2,4]triazolo[1,5-a]pyrimidin-6-yl)piperazin-1-yl)-2-oxoethyl)-2-hydroxybenzamide] | < 100 | < 100 |
| CCc1c(N2CCN(C(=O)CNC(=O)c3cccc(O)c3)CC2)c(=O)n2nc(C3=CCOCC3)nc2n1CC(=O)Nc1ccc(C(F)(F)F)cc1Cl [Example 270, N-(2-(4-(4-(2-((2-Chloro-4-(trifluoromethyl)phenyl)amino)-2-oxoethyl)-2-(3,6-dihydro-2H-pyran-4-yl)-5-ethyl-7-oxo-4,7-dihydro-[1,2,4]triazolo[1,5-a]pyrimidin-6-yl)piperazin-1-yl)-2-oxoethyl)-3-hydroxybenzamide] | < 100 | < 100 |
| CCc1c(N2CCN(C(=O)CNC(=O)c3ncccc3O)CC2)c(=O)n2nc(C3=CCOCC3)nc2n1CC(=O)Nc1ccc(C(F)(F)F)cc1Cl [Example 271, N-(2-(4-(4-(2-((2-Chloro-4-(trifluoromethyl)phenyl)amino)-2-oxoethyl)-2-(3,6-dihydro-2H-pyran-4-yl)-5-ethyl-7-oxo-4,7-dihydro-[1,2,4]triazolo[1,5-a]pyrimidin-6-yl)piperazin-1-yl)-2-oxoethyl)-3-hydroxypicolinamide] | 100 to 1000 | < 100 |
| CCc1c(N2CCN(C(=O)CNC(=O)CC3CCC3)CC2)c(=O)n2nc(C3=CCOCC3)nc2n1CC(=O)Nc1ccc(C(F)(F)F)cc1Cl [Example 272, N-(2-Chloro-4-(trifluoromethyl)phenyl)-2-(6-(4-((2-cyclobutylacetyl)glycyl)piperazin-1-yl)-2-(3,6-dihydro-2H-pyran-4-yl)-5-ethyl-7-oxo-[1,2,4]triazolo[1,5-a]pyrimidin-4(7H)-yl)acetamide] | < 100 | < 100 |

The next lines start with the values.

| IC50 [1] [nM] | IC50 [2] [nM] | SMILES |
| --- | --- | --- |
| < 100 | < 100 | CCc1c(N2CCN(C(=O)CNC(=O)c3ccccc3F)CC2)c(=O)n2nc(N3CCOCC3)nc2n1CC(=O)Nc1ccc(C(F)(F)F)cc1F [Example 254, N-(2-(4-(5-Ethyl-4-(2-((2-fluoro-4-(trifluoromethyl)phenyl)amino)-2-oxoethyl)-2-morpholino-7-oxo-4,7-dihydro-[1,2,4]triazolo[1,5-a]pyrimidin-6-yl)piperazin-1-yl)-2-oxoethyl)-2-fluorobenzamide] |
| < 100 | < 100 | CCc1c(N2CCN(C(=O)CNC(=O)c3cccc(F)c3N)CC2)c(=O)n2nc(N3CCOCC3)nc2n1CC(=O)Nc1ccc(C(F)(F)F)cc1F [Example 255, 2-Amino-N-(2-(4-(5-Ethyl-4-(2-((2-fluoro-4-(trifluoromethyl)phenyl)amino)-2-oxoethyl)-2-morpholino-7-oxo-4,7-dihydro-[1,2,4]triazolo[1,5-a]pyrimidin-6-yl)piperazin-1-yl)-2-oxoethyl)-3-fluorobenzamide] |
| < 100 | < 100 | CCc1c(N2CCN(C(=O)CNC(=O)c3ccc(F)c(NC)c3)CC2)c(=O)n2nc(N3CCOCC3)nc2n1CC(=O)Nc1ccc(C(F)(F)F)cc1F [Example 256, N-(2-(4-(5-Ethyl-4-(2-((2-fluoro-4-(trifluoromethyl)phenyl)amino)-2-oxoethyl)-2-morpholino-7-oxo-4,7-dihydro-[1,2,4]triazolo[1,5-a]pyrimidin-6-yl)piperazin-1-yl)-2-oxoethyl)-4-fluoro-3-(methylamino)benzamide] |
| < 100 | < 100 | CCc1c(N2CCN(C(=O)C(=O)Nc3nccs3)CC2)c(=O)n2nc(N3CCOCC3)nc2n1CC(=O)Nc1ccc(C(F)(F)F)cc1Cl [Example 258, 2-(4-(4-(2-((2-Chloro-4-(trifluoromethyl)phenyl)amino)-2-oxoethyl)-5-ethyl-2-morpholino-7-oxo-4,7-dihydro-[1,2,4]triazolo[1,5-a]pyrimidin-6-yl)piperazin-1-yl)-2-oxo-N-(thiazol-2-yl)acetamide] |
| < 100 | < 100 | CCc1c(N2CCN(C(=O)C(=O)Nc3nccs3)CC2)c(=O)n2nc(N3CCOCC3)nc2n1CC(=O)Nc1ccc(C(F)(F)F)cc1F [Example 260, 2-(4-(5-Ethyl-4-(2-((2-fluoro-4-(trifluoromethyl)phenyl)amino)-2-oxoethyl)-2-morpholino-7-oxo-4,7-dihydro-[1,2,4]triazolo[1,5-a]pyrimidin-6-yl)piperazin-1-yl)-2-oxo-N-(thiazol-2-yl)acetamide] |
| < 100 | < 100 | CCc1c(N2CCN(C(=O)C(=O)Nc3nccs3)CC2)c(=O)n2nc(N3CCn4cncc4C3)nc2n1CC(=O)Nc1ccc(C(F)(F)F)cc1F [Example 261, 2-(4-(2-(5,6-Dihydroimidazo[1,5-a]pyrazin-7 (8H)-yl)-5-ethyl-4-(2-((2-fluoro-4-(trifluoromethyl)phenyl)amino)-2-oxoethyl)-7-oxo-4,7-dihydro-[1,2,4]triazolo[1,5-a]pyrimidin-6-yl)piperazin-1-yl)-2-oxo-N-(thiazol-2-yl)acetamide] |
| < 100 | < 100 | CCc1c(N2CCN(C(=O)CNC(=O)c3ccccc3F)CC2)c(=O)n2nc(N3Cc4cnn(C)c4C3)nc2n1CC(=O)Nc1cc(C)cs1 [Example 263, N-(2-(4-(5-Ethyl-2-(1-methyl-4,6-dihydropyrrolo[3,4-c]pyrazol-5 (1H)-yl)-4-(2-((4-methylthiophen-2-yl)amino)-2-oxoethyl)-7-oxo-4,7-dihydro-[1,2,4]triazolo[1,5-a]pyrimidin-6-yl)piperazin-1-yl)-2-oxoethyl)-2-fluorobenzamide] |
